Structures can show the parent of a compound that is named as a salt.
Assays:
Type in all cases: cell-based, human
[1] = test system: bradykinin-evoked Ca^2+ signals in hBASMCs; test: Bradykinin-evoked Ca2+ signals in populations of fluo-4-loaded hBASMCs; settings: cells treated with PTX 100 ng·mL^−1, 24 h; HBS
Protocol: (§1) Two methods were used to measure [Ca^2+]i in populations of hBASMCs. For measurements using a FlexStation III plate-reader (Molecular Devices, Sunnyvale, CA, USA), hBASMCs were seeded into 96-well plates (10^4 cells per well). After about 4 days, when the cells were confluent, the medium was replaced with SMGM-2 without serum or growth factor supplements, and the cells were used after a further 24 h. […] Cells were washed with HEPES-buffered saline (HBS: 135 mM NaCl, 5.9 mM KCl, 1.2 mM MgCl2, 1.5 mM CaCl2, 11.6 mM HEPES, 11.5 mM D-glucose, pH 7.3), and loaded with fluo-4 by incubation with fluo-4-AM (2 μM) in HBS (100 μL per well) containing pluronic F127 (0.02%, v/v) and probenecid (2.5 mM). After 1 h at 20 °C, the medium was replaced with HBS (100 μL per well) containing probenecid (2.5 mM). After a further incubation at 20 °C for 1 h, the medium was replaced with HBS (60–80 μL per well) or nominally Ca^2+-free HBS, and the cells were used immediately for experiments at 20 °C. […] Drug additions (20 μL at 4 or 5 times the final concentration) were added automatically. Fluorescence from fluo-4 (excitation 485 nm, emission 525 nm) was recorded at 1.44-s intervals using Softmax Pro 5.4 (Molecular Devices). Fluorescence was calibrated to [Ca^2+]i from: [Ca^2+]i=KDCa×(F−Fmin/Fmax−F) where, KDCa is the equilibrium dissociation constant of fluo-4 for Ca^2+ (345 nM), F is the recorded fluorescence, and Fmin and Fmax are the fluorescence values recorded after addition of triton-X-100 (0.1%, v/v) with either BAPTA (10 mM, Fmin) or CaCl2 (10 mM, Fmax). […] Fmax was determined for each well at the end of an experiment, and the average value was used for each column of 8 wells. Fmin was determined from parallel wells on each plate.
(§2) For measurements of [Ca^2+]i using an FDSS 7000 FLIPR (Hamamatsu), hBASMCs were seeded into 384-well plates (8000 cells per well) in 20 μL of SMGM-2 containing 5% serum. […] The exact composition of this ‘no-wash’ indicator kit is not disclosed by the manufacturer, but it contains fluo-4-AM and components that reduce background fluorescence. […]

[2] = test system: intracellular cAMP in hBASMCs; test: Intracellular cAMP in hBASMCs by mass spectrometry
Protocol: These methods were modified from. Confluent cultures of hBASMCs in 48-well plates were serum-deprived (6–24 h) and the medium was then replaced with HBSS (300 μL) containing HEPES (5 mM) and BSA (0.1%, w/v). Cells were stimulated at 20 °C, and reactions were terminated by aspiration of the medium and addition of acetonitrile (170 μL) containing dibutyryl cAMP (0.5 μM, to provide an internal standard). The plates were centrifuged (1500 xg, 15 min, 4 °C), supernatants (158 μL) were transferred to a 96-well, glass-coated plate (Thermo Scientific), and aqueous NH4HCO3 (pH 9.4, 93 μL) was added to each sample. After mixing and centrifugation (1500 xg, 15 min, 4 °C), samples were stored at 4 °C before analysis. Samples were analyzed by liquid chromatography tandem mass spectrometry (LC–MS/MS) using a Waters Acquity UPLC and a Sciex 5500 mass spectrometer equipped with an electrospray ionization source. ATP, ADP, AMP and cAMP were analyzed using a ZIC-pHILIC polymeric column (5-μm particle size, […]) maintained at 35 °C. Calibration standards were prepared in the lysis medium containing the internal standard, dibutyryl cAMP (0.5 μM). […] Samples were detected using multiple reaction monitoring in negative ion mode using the following parent-to-daughter mass transitions: cAMP m/z 327.9 → 133.9 (DP −100 V, CE −33 eV), AMP m/z 345.9 → 134.0 (DP −100 V, CE −50 eV), ADP m/z 426.0 → 134.0 (DP −100 V, CE −30 eV), ATP m/z 505.9 → 408.0 (DP −100 V, CE −35 eV), and internal standard dibutyryl cAMP m/z 468.1 → 175.0 (DP −100 V, CE −35 eV). Concentration-effect relationships were fitted to logistic equations for each experiment using GraphPad Prism (version 5, GraphPad Software, La Jolla, CA, USA), from which half-maximally effective drug concentrations (EC50), maximal responses, and Hill slopes were determined. For statistical analyses, maximal responses, Hill slopes and pEC50 (-logEC50) or pIC50 (-log of the half-maximal inhibitory concentration, IC50) values determined for individual experiments were pooled for statistical analysis. […]

[3] = test system: intracellular Ca^2+ stores of hBASMCs; test: Ca2+ content of intracellular stores, by ionomycin in Ca2+-free HBS; settings: isoproterenol, forskolin 10 μM, 5 min, 2-APB 5 min, higher concentrations needed than for inhibition of GPCR-evoked signals
[4] = test system: carbachol-evoked Ca^2+ signals in hBASMCs; test: Carbachol-evoked Ca2+ signals in populations of fluo-4-loaded hBASMCs; settings: cells treated with PTX 100 ng·mL^−1, 24 h; HBS
Protocol: as §1, §2

Structure (SMILES): CC(C)NC[C@H](O)c1ccc(O)c(O)c1 [isoproterenol, (−)-isoproterenol hydrochloride]
- effect on the Ca2+ signals evoked by bradykinin after pertussis toxin [1]: remained insensitive to isoproterenol
- EC50 ([2]; Homo sapiens, 5 min, MS analyses, n = 3, read-out: pEC50 for cAMP accumulation (converted)): 132 nM
- intracellular cAMP associated with matched inhibition of Ca2+ signals, relative to IBMX ([2]; isoproterenol (5 min) vs IBMX (20 min), histamine 10 μM, cAMP by MS): ~5.4 fold
- effect on the Ca2+ content of the intracellular stores [3]: Neither isoproterenol nor forskolin (10 μM, 5 min) affected
- effect on the Ca2+ signals evoked by carbachol after pertussis toxin [4]: remained insensitive to isoproterenol

— PMC5893132, “Selective inhibition of histamine-evoked Ca^2+ signals by compartmentalized cAMP in human bronchial airway smooth muscle cells” (Cell Calcium, 2018)
